Common to all, as to type: in vivo
For one assay, the system named is glucagon. As to the kind of experiment: Suppression of Growth Hormone, Glucagon and Insulin (arginine-stimulated, nembutal-anesthetized rats): glucagon. Conditions: albino male rats, arginine stimulation, blood 15 min after compound. The procedure: (§1) Albino male rats are arranged in the three groups (nine rats/group) and injected i.p. with nembutal at 50 mg/kg. Fifteen minutes after the nembutal injection they are injected s.c. according to group with (a) test compound, typically 10-2000 μg/kg.; )b) SRIF 200 μg/kg.; or (c) physiological saline. Ten minutes. later 0.5 ml. of arginine (300 mg/ml. pH 7.2) is injected into the heart. The rats are decapitated five minutes after receiving the arginine, and the blood is collected into Trasylol-EDTA. Appropriate aliquots are then assayed for growth hormone, glucagon and insulin. […] Comparisons between control and experimental values are statistically evaluated by the analysis of variants method and statistical significance (p) at 0.05 or lower is used as the index of activity.

For another assay, the system named is insulin. As to the kind of experiment: Suppression of Growth Hormone, Glucagon and Insulin (arginine-stimulated, nembutal-anesthetized rats): insulin. Conditions: albino male rats, arginine stimulation, blood 15 min after compound. The procedure: as §1
The test system of a further assay is growth hormone. As to the kind of experiment: Suppression of Growth Hormone, Glucagon and Insulin (arginine-stimulated, nembutal-anesthetized rats): growth hormone. Conditions: for GH: albino male rats, arginine stimulation, blood 15 min after compound. The procedure: as §1
For a further assay, the system named is growth hormone (GH). Briefly: Suppression of Growth Hormone (duration of activity, 2 and 4 hours after sc injection). The note with it: 1 mg/kg sc, nonfasted male rats, paired saline control; for plasma growth hormone (GH) concentration, 2 Hr.: 2 hours after injection; for plasma growth hormone (GH) concentration, 4 Hr.: 4 hours after injection. The procedure: A subcutaneous (sc) injection of peptide solubilized or suspended in physiological saline, is given to Charles River (CD® nonfasted male rats. Matched saline control solution sc injected rats serve as control animals so that every experimental rat is paired with a control rat. The rats are kept in separate cages and 20 minutes before the end of the test time period they are given an intraperitoneal (i.p.) injection of Nembutal® at a dose of 50 mg/kg. Blood samples are obtained by cardiac puncture and the plasma separated for the radioimmunoassay of growth hormone (GH) concentration (ng/ml.). Time periods after injection of 2 and 4 hours are used to test the duration of the activity of the peptide to suppress circulating peripheral GH levels. Comparisons between control and experimental GH values at each time are evaluated by the Student "t" test and statistical significance (p) at the 0.05 level or lower is used as the index of activity.

Structures can show the parent of a compound that is named as a salt. Residues, ends and D or L forms follow the SMILES beside them.

The molecule `C[C@@H](O)[C@@H]1NC(=O)[C@H](Cc2ccccc2)NC(=O)[C@H]([C@@H](C)O)NC(=O)[C@H](CCCCN)NC(=O)[C@@H](Cc2c[nH]c3ccccc23)NC(=O)[C@H](Cc2ccccc2)NC(=O)[C@H](Cc2ccccc2)NC(=O)[C@H](Cc2c[nH]cn2)NC(=O)[C@H](Cc2c[nH]cn2)NC(=O)[C@@H](N)CSSC[C@@H](C(=O)O)NC(=O)[C@H](CO)NC1=O` [Compound I, L-Cysteinyl-L-Histidyl-L-Histidyl-L-Phenylalanyl-L-Phenylalanyl-D-Trptophyl-L-Lysyl-L-Threonyl-L-Phenylalanyl-L-Threonyl-L-Seryl-L-Cysteine Cyclic (1-12) Disulfide] (HELM PEPTIDE1{C.H.H.F.F.[dW].K.T.F.T.S.C}$PEPTIDE1,PEPTIDE1,1:R3-12:R3$$$V2.0) came in with a Glucagon in the assay on glucagon (100 μg/kg s.c.) of 20 ± 8 pg/mL. Moreover, the Insulin in the assay on insulin (100 μg/kg s.c.) turned out to be 202 ± 49 μU/ml. Besides, the GH in the assay with growth hormone (100 μg/kg s.c.) was 20 ± 8 ng/mL. In the assay with growth hormone (GH), the “plasma growth hormone (GH) concentration, 2 Hr.” value came out at 32 ± 6 ng/mL and the “plasma growth hormone (GH) concentration, 4 Hr.” value came out at 62 ± 13 ng/mL.
With `C[C@@H](O)[C@@H]1NC(=O)[C@H](CCCCN)NC(=O)[C@@H](Cc2c[nH]c3ccccc23)NC(=O)[C@H](Cc2ccccc2)NC(=O)[C@H](Cc2ccccc2)NC(=O)[C@H](Cc2c[nH]cn2)NC(=O)[C@H](Cc2c[nH]cn2)NC(=O)[C@@H](N)CSSC[C@H](C(=O)O)NC(=O)[C@H](CO)NC(=O)[C@H]([C@@H](C)O)NC(=O)[C@H](Cc2ccccc2)NC1=O` [Compound II, L-Cysteinyl-L-Histidyl-L-Histidyl-L-Phenylalanyl-L-Phenylalanyl-D-Tryptophyl-L-Lysyl-L-Threonyl-L-Phenylalanyl-L-Threonyl-L-Seryl-D-Cysteine Cyclic (1-12) Disulfide, Diacetate Salt] (HELM PEPTIDE1{C.H.H.F.F.[dW].K.T.F.T.S.[dC]}$PEPTIDE1,PEPTIDE1,1:R3-12:R3$$$V2.0), the Glucagon in the assay on glucagon (10 μg/kg s.c.) was found to be 70 ± 7 pg/mL; with glucagon (100 μg/kg s.c.), 5 ± 2 pg/mL. Also, the Insulin in the assay with insulin (10 μg/kg s.c.) was found to be 318 ± 54 μU/ml; in the assay with insulin (100 μg/kg s.c.), 165 ± 21 μU/ml. In addition, the GH with growth hormone (10 μg/kg s.c.) came out at 110 ± 22 ng/mL; in the assay with growth hormone (100 μg/kg s.c.), 64 ± 20 ng/mL. For the same molecule, the “hormone specificity of suppression” value with growth hormone (at low doses, growth hormone, glucagon and insulin) is “specific for the suppression of glucagon and growth hormone without affecting insulin secretion”. In the assay on growth hormone (GH), the “plasma growth hormone (GH) concentration, 2 Hr.” value worked out at 20 ± 3 ng/mL. Further, the “plasma growth hormone (GH) concentration, 4 Hr.” value in the assay with growth hormone (GH) came out at 107 ± 34 ng/mL.

The record behind these values is US4104267A, “Somatostatin analogs” (American Home Products Corporation, priority 1977, dated 1978).
